Laboratory results reported in patent US20080227832A1, “Modified Coffee, Method of Roasting Coffee Bean, Coffee-Like Supplement and Auxiliary Food” (TAMA-TLO Corporation, priority 2004, published 2008).
Read-outs that look alike come from different tables or passages of the source.

Experiments:
[1] = Metabolites in 24-hour urine of rats given Maillard reaction products orally (HPLC); conditions: rat
Procedure: Then, 100 μl of acetonitrile/phosphate buffer (7/93) adjusted to pH 2.0 was injected into the HPLC apparatus through the injection microsyringe. The apparatus and the experimental conditions were the same as those described above.
The specification of the HPLC apparatus and experimental conditions were the same as described above.

[2] = test system: absorption of glucose in digestive tracts; conditions: animal test; cited from earlier work
insulin sensitivity = conditions: rat, in vivo; cited from earlier work
male Wistar rats [3] = test system: male Wistar rats
male Wistar rats [4] = conditions: oral, 10 mg/kg nicotinic acid alone
male Wistar rats [5] = experiment: Blood free-fatty acid level time course after 5-MPCA; assay type: in vivo, rat; conditions: 50 mg/kg, 1, 2, 4 and 6 hours after administration
Procedure: Further, using four-week-old male Wistar rats, the following experiment was performed. A control group was administered with physiological saline. A test group was administered with a solution of 50 mg/kg of 5-methylpyrazine-2-carboxylic acid (5-MPCA) dissolved in physiological saline. Immediately before starting the administration and 1, 2, 4, and 6 hours after the administration, each 6 rats were decapitated and blood was collected from each rat. According to a conventional method, plasma was separated from each sample blood and blood levels of free-fatty acid (FFA) were determined using a kit for determining free-fatty acid level. […] That is, FIG. 10 is a diagram showing the effect of 5-methylpyrazinecarboxylic acid on the blood free-fatty acid level of the rats.

[6] = Water solubility as described for addition to liquid foods; assay type: physicochemical
Procedure: The case where the above-mentioned group A to C compounds are added to any liquid foods and beverages (coffee, refreshing beverages, etc.) or hydrophilic solutions (for example, aqueous solutions and alcohol solutions) is described hereinbelow. […] Since the group B compounds are water-soluble but have strong volatility, it is recommended that simple dissolution thereof may be performed after concentration of a coffee extract and freeze-drying, if any. […] Since the group C compounds are water-soluble but have weak volatility, they may be simply dissolved similarly to the group B compounds.

**Q.** Which “conversion by metabolism in liver” value ([1]; 50 mg/kg, 24-hour urine) does the source give for `Cc1cnc(C)cn1` [2,5-dimethylpyrazine] here?
**A.** Its value is “converted into a group C compound”.

**Q.** With `O=C(/C=C/c1ccc(O)c(O)c1)O[C@@H]1C[C@](O)(C(=O)O)C[C@@H](O)[C@H]1O` [Chlorogenic acid, chlorogenic acid] as the compound, how does the “speed of absorption of glucose in digestive tracts” value [2] read?
**A.** The value was “reducing a speed of absorption of glucose in digestive tracts”.

**Q.** Which insulin sensitivity (insulin sensitivity) does the source give for chlorogenic lactone here?
**A.** Its insulin sensitivity is “Enhancement of insulin sensitivity”.

**Q.** With `O=Cc1ccc[nH]1` [pyrrole-2-aldehyde] as the compound, how does the “recovery in urine (in words)” value ([1]; 50 mg/kg oral, urine collected after 24 hours) read?
**A.** Its value is “almost quantitative”.

**Q.** With `O=C(O)c1cccnc1` [nicotinic acid] as the compound, how does the “time after which rebound phenomenon was observed” value (male Wistar rats [3]; 10 to 20 mg/kg) read?
**A.** Its value is 2 h.

**Q.** And the “time after which rebound phenomenon was observed” value (male Wistar rats [3]; oral, 5 mg/kg)?
**A.** Its value is 1 h.

**Q.** What about the “time after which rebound phenomenon was observed” value (male Wistar rats [3]; oral, 10 mg/kg) of the same compound?
**A.** The value was 2 h.

**Q.** And the “time after which rebound phenomenon was observed” value (male Wistar rats [3]; oral, 50 mg/kg)?
**A.** Its value is 4 h.

**Q.** What about the “blood free-fatty acid level after 30 minutes of the administration” value (male Wistar rats [3]; oral, any dose of from 5 mg/kg to 50 mg/kg) of the same compound?
**A.** Its value is no more than 0.5 mEq/l.

**Q.** What about the “rebound phenomenon after 1 hour of the administration” value (male Wistar rats [4]) of the same compound?
**A.** The value was “present in a mixed manner”.

**Q.** And the “rebound phenomenon after 2 hours of the administration” value (male Wistar rats [4])?
**A.** The value was “all the animals showed the rebound phenomenon”.

**Q.** With `Cc1cnc(C(=O)O)cn1` [5-MPCA, 5-methyl-pyrazine-2-carboxylic acid] as the compound, how does the “rebound phenomenon of blood free-fatty acid level” value (male Wistar rats [5]) read?
**A.** Its value is “no rebound phenomenon”.

**Q.** For `Cc1nc(C)c(C)nc1C` [tetramethylpyrazine], which water solubility [6] is on record?
**A.** Its water solubility is “hardly water-soluble”.
